Literature values as cited in patent US7590494B1, “Drug design based on the structure of LTA4 hydrolase” (priority 1999, dated 2009).

Molecular target: T1, LTA4 hydrolase (Homo sapiens, UniProt P09960)
T1 sequence (P09960 1-611): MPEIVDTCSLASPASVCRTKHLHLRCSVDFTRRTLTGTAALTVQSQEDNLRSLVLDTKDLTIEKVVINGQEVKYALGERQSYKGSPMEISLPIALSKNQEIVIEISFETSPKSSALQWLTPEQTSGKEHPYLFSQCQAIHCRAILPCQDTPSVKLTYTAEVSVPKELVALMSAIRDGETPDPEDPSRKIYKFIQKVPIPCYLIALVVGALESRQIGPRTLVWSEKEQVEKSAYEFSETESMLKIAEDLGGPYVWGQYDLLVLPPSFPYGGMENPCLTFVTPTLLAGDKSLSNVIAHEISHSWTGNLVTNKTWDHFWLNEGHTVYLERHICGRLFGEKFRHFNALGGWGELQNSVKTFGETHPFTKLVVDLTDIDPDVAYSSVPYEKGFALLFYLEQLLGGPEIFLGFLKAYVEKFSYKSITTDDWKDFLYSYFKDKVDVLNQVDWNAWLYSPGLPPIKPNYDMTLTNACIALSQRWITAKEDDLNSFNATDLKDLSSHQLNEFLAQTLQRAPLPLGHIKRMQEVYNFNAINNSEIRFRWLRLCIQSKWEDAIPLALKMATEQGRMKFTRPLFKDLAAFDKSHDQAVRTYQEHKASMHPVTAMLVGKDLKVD
Conditions: qualitative statement from Örning et al. 1991

C[C@H](CS)C(=O)N1CCC[C@H]1C(=O)O [captopril]
inhibition of LTA4 hydrolase: inhibited

CC(C)C[C@H](NC(=O)[C@@H](O)[C@H](N)Cc1ccccc1)C(=O)O [bestatin]
inhibition of LTA4 hydrolase: inhibited
